For one compound, MIC and LD50 results are on record in US4431804A, “Thiazolylacetamido compounds” (Hoffmann-La Roche Inc., priority 1981, dated 1984).

A word on the MIC: it is the smallest concentration in the dilution series that meets the test's criterion for growth inhibition. The low end stands for greater potency, the high end for weaker potency. The LD50 is the dose expected to kill half of the subjects tested. A lower LD50 goes with greater toxicity.

One series relates to Pseudomonas aeruginosa. Nature of the series: in vitro activity against 15 strains of Pseudomonas aeruginosa (minimum inhibitory concentration). It is filed as cell-based. The text has this: Results (as MIC=minimum inhibitory concentration in μg/ml): […]
The nature of a further series: Toxicity (LD50). To be noted: in vivo. An excerpt:
Toxicity of the trisodium salt of (6R,7R)-7-[(Z)-2-(2-amino-4-[…])-2-[(1-carboxy-1-methylethoxy)imino]acetamido]-3-[[(2,5-dihydro-6-hydroxy-2-methyl-5-oxo-as-triazin-3-yl)thio]methyl]-8-oxo-5-thia-1-azabicyclo[4.2.0]oct-2-ene-2-carboxylic acid: […]

Structures can show the parent of a compound that is named as a salt. Bounds are passed on as bounds.

Regarding `Cn1nc(O)c(=O)nc1SCC1=C(C(=O)O)N2C(=O)[C@@H](NC(=O)/C(=N\OC(C)(C)C(=O)O)c3csc(N)n3)[C@H]2SC1` [Example 1, trisodium salt of (6R,7R)-7-[(Z)-2-(2-amino-4-thiazolyl)-2-[(1-carboxy-1-methylethoxy)imino]acetamido]-3-[[(2,5-dihydro-6-hydroxy-2-methyl-5-oxo-as-triazin-3-yl)thio]methyl]-8-oxo-5-thia-1-azabicyclo[4.2.0]oct-2-ene-2-carboxylic acid], the minimum inhibitory concentration (MIC) turned out to be 6.3 µg/mL against Pseudomonas aeruginosa (P. aeruginosa strain 1, in vitro); 1.6 µg/mL with Pseudomonas aeruginosa (P. aeruginosa strain 2, in vitro); 1.6 µg/mL in the series with Pseudomonas aeruginosa (P. aeruginosa strain 3, in vitro); 1.6 µg/mL in the series with Pseudomonas aeruginosa (P. aeruginosa strain 4, in vitro); 1.6 µg/mL in the series on Pseudomonas aeruginosa (P. aeruginosa strain 5, in vitro); 1.6 µg/mL against Pseudomonas aeruginosa (P. aeruginosa strain 6, in vitro). In addition, the minimal inhibitory concentration (MIC) turned out to be 1.6 µg/mL against Pseudomonas aeruginosa (P. aeruginosa strain 7, in vitro); 25 µg/mL against Pseudomonas aeruginosa (P. aeruginosa strain 8, in vitro); 3.1 µg/mL in the series on Pseudomonas aeruginosa (P. aeruginosa strain 9, in vitro); 1.6 µg/mL against Pseudomonas aeruginosa (P. aeruginosa strain 10, in vitro); 0.8 µg/mL against Pseudomonas aeruginosa (P. aeruginosa strain 11, in vitro); 1.6 µg/mL in the series with Pseudomonas aeruginosa (P. aeruginosa strain 12, in vitro). The minimal inhibitory concentration (MIC) was 1.6 µg/mL against Pseudomonas aeruginosa (P. aeruginosa strain 13, in vitro); 1.6 µg/mL in the series with Pseudomonas aeruginosa (P. aeruginosa strain 14, in vitro); 1.6 µg/mL against Pseudomonas aeruginosa (P. aeruginosa strain 15, in vitro). For the same compound, the LD50 in “Toxicity (LD50)” (iv) is over 1000 mg/kg; in the series “Toxicity (LD50)” (po), over 4000 mg/kg; in the series “Toxicity (LD50)” (sc), over 4000 mg/kg.
